Measured values published in publication PMC4963535, “Structure-guided development of heterodimer-selective GPCR ligands” (Nature Communications, 2016).
Entries after “also recorded” stand apart in the source; their conditions may differ. Read-outs that look alike come from different tables or passages of the source. Non-standard residues stand in square brackets, D forms with d. No end group written: not given here. aminoindane‑type D2R agonist pharmacophore = not defined here; N(4-hydroxyphenethyl)Gly = O=C(O)CNCCc1ccc(O)cc1; biphenyltriazole = not defined here

T1: hD4.4R (Homo sapiens, UniProt P21917)
T1 construct: expressed in transfected cells
T1 sequence (P21917 1-419): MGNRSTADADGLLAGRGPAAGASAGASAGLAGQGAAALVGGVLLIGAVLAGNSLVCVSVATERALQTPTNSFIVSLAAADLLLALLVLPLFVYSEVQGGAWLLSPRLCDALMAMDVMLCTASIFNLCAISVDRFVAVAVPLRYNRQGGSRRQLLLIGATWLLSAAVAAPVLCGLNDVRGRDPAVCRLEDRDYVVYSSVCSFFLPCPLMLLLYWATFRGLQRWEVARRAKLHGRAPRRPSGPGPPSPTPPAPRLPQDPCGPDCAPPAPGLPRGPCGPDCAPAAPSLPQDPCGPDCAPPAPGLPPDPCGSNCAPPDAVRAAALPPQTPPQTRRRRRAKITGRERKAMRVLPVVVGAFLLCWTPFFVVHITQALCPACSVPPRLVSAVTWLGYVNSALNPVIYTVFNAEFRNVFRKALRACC


Key:
hD4.4R = target: T1, hD4.4R; assay: [3H]spiperone displacement, membranes from CHO cells stably expressing hD4.4R; format: binding
D2R = target: T2, D2R (Homo sapiens, UniProt P14416); assay: Antagonist effect on quinpirole-mediated inhibition of cAMP accumulation, HEK 293T cells expressing D2R; format: cell-based
T2 construct: expressed in transfected cells; host or cells: HEK 293 T

D2LR/NTS1R = D2LR/NTS1R (Homo sapiens, UniProt P14416+P30989); assay: [3H]spiperone displacement, membranes from HEK 293 T cells coexpressing D2LR and NTS1R; settings: D2LR:NTS1R 1:2; mean ± s.e.m.
hD3R = target: T3, hD3R (Homo sapiens, UniProt P35462); assay: [3H]spiperone displacement, membranes from CHO cells stably expressing hD3R; format: binding
T3 construct: expressed in transfected cells

D2R_D80A/NTS1R = target: T4, D2R_D80A/NTS1R (Homo sapiens, UniProt P14416+P30989, D80A); assay: β-arrestin-2 recruitment (DiscoveRx PathHunter), ProLink-tagged signalling incompetent D2R_D80A coexpressed with NTS1R; format: cell-based
T4 construct: host or cells: HEK 293 stably expressing EA-tagged β-arrestin-2

D2SR = target: T5, D2SR (Homo sapiens, UniProt P14416); assay: cAMP BRET assay (CAMYEL biosensor), HEK 293 T cells expressing D2SR; format: cell-based; settings: 10 μM forskolin
T5 construct: expressed in transfected cells; host or cells: HEK 293 T

hNTS2R = target: T6, hNTS2R (Homo sapiens, UniProt O95665); assay: [3H]NT(8-13) displacement, homogenates from transiently transfected HEK 293T cells, human NTS2R; format: binding
T6 construct: host or cells: HEK 293T

[1] = target: D2R/NTS1R heterodimer (D2LR and NTS1R coexpressed in HEK 293 T membranes), P14416; assay: +1 uM NT(8-13); settings: N-homotyrosine (NhTyr) in place of tyrosine
Chain of D2R/NTS1R heterodimer (D2LR and NTS1R coexpressed in HEK 293 T membranes), P14416 (P14416 whole entry, chain 1 of 2): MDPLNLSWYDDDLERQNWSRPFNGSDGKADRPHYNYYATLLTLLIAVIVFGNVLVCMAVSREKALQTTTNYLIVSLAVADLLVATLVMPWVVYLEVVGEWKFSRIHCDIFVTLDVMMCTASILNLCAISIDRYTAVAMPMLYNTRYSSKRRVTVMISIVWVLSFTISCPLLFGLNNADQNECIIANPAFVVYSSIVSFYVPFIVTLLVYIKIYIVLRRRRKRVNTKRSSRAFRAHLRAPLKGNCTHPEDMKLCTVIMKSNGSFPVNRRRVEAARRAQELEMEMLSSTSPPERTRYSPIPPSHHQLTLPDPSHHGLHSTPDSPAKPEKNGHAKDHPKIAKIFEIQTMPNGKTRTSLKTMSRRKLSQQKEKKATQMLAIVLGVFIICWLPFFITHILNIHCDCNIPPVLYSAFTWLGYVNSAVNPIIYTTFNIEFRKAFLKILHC
Chain of D2R/NTS1R heterodimer (D2LR and NTS1R coexpressed in HEK 293 T membranes), P14416 (P30989 whole entry, chain 2 of 2, further chain): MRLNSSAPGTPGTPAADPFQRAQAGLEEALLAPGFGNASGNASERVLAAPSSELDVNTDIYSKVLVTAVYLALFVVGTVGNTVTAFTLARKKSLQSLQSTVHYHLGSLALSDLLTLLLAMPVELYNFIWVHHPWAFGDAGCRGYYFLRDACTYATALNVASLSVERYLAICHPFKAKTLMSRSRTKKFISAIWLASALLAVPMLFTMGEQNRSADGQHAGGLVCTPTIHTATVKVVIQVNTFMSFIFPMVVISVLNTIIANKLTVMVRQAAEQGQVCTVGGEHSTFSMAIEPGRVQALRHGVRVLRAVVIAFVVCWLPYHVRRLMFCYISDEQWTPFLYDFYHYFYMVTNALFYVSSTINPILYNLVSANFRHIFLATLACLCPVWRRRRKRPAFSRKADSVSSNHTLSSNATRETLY

Chain of D2LR/NTS1R (P14416 whole entry): as the sequence (P14416 whole entry, chain 1 of 2) above
Chain of D2LR/NTS1R (P30989 whole entry): as the sequence (P30989 whole entry, chain 2 of 2, further chain) above
T3 sequence (P35462 whole entry): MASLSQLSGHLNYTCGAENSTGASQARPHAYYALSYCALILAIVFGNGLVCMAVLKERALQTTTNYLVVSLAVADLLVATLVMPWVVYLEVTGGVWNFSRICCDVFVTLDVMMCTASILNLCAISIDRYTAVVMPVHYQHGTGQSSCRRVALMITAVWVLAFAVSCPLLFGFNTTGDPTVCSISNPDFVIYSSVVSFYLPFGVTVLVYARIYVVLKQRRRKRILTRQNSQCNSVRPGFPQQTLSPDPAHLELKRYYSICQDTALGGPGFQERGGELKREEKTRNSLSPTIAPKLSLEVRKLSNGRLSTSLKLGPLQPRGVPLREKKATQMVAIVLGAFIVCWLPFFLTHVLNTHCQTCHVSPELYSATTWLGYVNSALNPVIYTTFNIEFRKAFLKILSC
T2 sequence (P14416 1-414 isoform P14416-2): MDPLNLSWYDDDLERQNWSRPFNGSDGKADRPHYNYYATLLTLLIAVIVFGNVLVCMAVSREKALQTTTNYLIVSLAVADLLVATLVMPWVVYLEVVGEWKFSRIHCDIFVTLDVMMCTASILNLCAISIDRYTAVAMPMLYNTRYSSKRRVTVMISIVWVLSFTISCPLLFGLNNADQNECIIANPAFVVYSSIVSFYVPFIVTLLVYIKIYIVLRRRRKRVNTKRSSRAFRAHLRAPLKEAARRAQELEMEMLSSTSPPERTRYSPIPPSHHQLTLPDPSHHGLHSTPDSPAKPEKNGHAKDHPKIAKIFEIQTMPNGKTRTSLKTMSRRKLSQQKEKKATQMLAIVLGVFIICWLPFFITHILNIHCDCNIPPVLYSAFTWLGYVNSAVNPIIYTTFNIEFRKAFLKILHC
T5 sequence (P14416 1-414 isoform P14416-2): as above
T4 sequence (P14416 1-414 isoform P14416-2 D80A): as the sequence (P14416 1-414 isoform P14416-2) above, with D80A counted along it
T4 sequence (P30989 whole entry): as the sequence (P30989 whole entry, chain 2 of 2, further chain) above
T6 sequence (O95665 whole entry): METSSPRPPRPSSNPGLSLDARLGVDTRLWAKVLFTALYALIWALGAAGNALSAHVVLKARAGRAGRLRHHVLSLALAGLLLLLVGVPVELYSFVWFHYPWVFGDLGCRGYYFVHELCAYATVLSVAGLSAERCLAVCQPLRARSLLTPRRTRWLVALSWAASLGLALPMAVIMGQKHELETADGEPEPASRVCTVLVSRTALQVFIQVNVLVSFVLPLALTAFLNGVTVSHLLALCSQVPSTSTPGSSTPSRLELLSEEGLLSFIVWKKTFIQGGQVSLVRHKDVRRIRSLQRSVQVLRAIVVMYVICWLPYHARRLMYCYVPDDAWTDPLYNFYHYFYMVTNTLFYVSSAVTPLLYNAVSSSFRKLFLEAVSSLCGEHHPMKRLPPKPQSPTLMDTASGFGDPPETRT

| Molecule | Ki (hD4.4R) [nM] | Fraction high (fraction representing the high-affinity binding site) (D2LR/NTS1R) [%] | other results |
| --- | --- | --- | --- |
| CCc1cc(Cl)c(OC)c(C(=O)NC[C@@H]2C[C@@H](OCCCCc3cn(-c4ccc(-c5ccc(C(=O)NCCOCCOCCOCCOCCOCCOCCC(=O)N[C@@H](CCCNC(=N)N)C(=O)N[C@@H](CCCNC(=N)N)C(=O)N6CCC[C@H]6C(=O)N[C@@H](Cc6ccc(O)cc6)C(=O)N[C@H](C(=O)N[C@@H](CC(C)C)C(=O)O)[C@@H](C)CC)cc5)cc4)nn3)CN2CC)c1O [1a] | 470 ± 420 |  |  |
| CCc1cc(Cl)c(OC)c(C(=O)NC[C@@H]2C[C@@H](OCCCCc3cn(-c4ccc(-c5ccc(C(=O)NCCOCCOCCOCCOCCOCCOCCC(=O)NCCOCCOCCOCCOCCOCCOCCC(=O)N[C@@H](CCCNC(=N)N)C(=O)N[C@@H](CCCNC(=N)N)C(=O)N6CCC[C@H]6C(=O)N[C@@H](Cc6ccc(O)cc6)C(=O)N[C@H](C(=O)N[C@@H](CC(C)C)C(=O)O)[C@@H](C)CC)cc5)cc4)nn3)CN2CC)c1O [1b] | 850 ± 750 | 31 ± 6 | antagonist behaviour at D2R (in words) (D2R; 10 nM quinpirole): inverse agonists; also recorded: inverse agonist effect; decrease of the basal response (inverse agonist effect on basal cAMP level) (D2R; 10 nM quinpirole): 32% |
| CCc1cc(Cl)c(OC)c(C(=O)NC[C@@H]2C[C@@H](OCCCCc3cn(-c4ccc(-c5ccc(C(=O)NCCOCCOCCOCCOCCOCCOCCC(=O)NCCOCCOCCOCCOCCOCCOCCC(=O)NCCOCCOCCOCCOCCOCCOCCC(=O)N[C@@H](CCCNC(=N)N)C(=O)N[C@@H](CCCNC(=N)N)C(=O)N6CCC[C@H]6C(=O)N[C@@H](Cc6ccc(O)cc6)C(=O)N[C@H](C(=O)N[C@@H](CC(C)C)C(=O)O)[C@@H](C)CC)cc5)cc4)nn3)CN2CC)c1O [1c] | 420 ± 100 | 66 ± 5 |  |
| CCc1cc(Cl)c(OC)c(C(=O)NC[C@@H]2C[C@@H](OCCCCc3cn(-c4ccc(-c5ccc(C(=O)NCCOCCOCCOCCOCCOCCOCCC(=O)NCCOCCOCCOCCOCCOCCOCCC(=O)NCCOCCOCCOCCOCCOCCOCCC(=O)NCCOCCOCCOCCOCCOCCOCCC(=O)N[C@@H](CCCNC(=N)N)C(=O)N[C@@H](CCCNC(=N)N)C(=O)N6CCC[C@H]6C(=O)N[C@@H](Cc6ccc(O)cc6)C(=O)N[C@H](C(=O)N[C@@H](CC(C)C)C(=O)O)[C@@H](C)CC)cc5)cc4)nn3)CN2CC)c1O [1d] | 440 ± 190 | 51 ± 5 | Ki (hD3R): 1.6 ± 0.4 nM |
| CC[C@H](C)[C@H](NC(=O)[C@H](Cc1ccc(O)cc1)NC(=O)[C@@H]1CCCN1C(=O)[C@H](CCCNC(=N)N)NC(=O)[C@H](CCCNC(=N)N)NC(=O)CCOCCOCCOCCOCCOCCOCCNC(=O)c1ccc(-c2ccc(-n3cc(CCCCN4CCN(c5ccccc5OC)CC4)nn3)cc2)cc1)C(=O)N[C@@H](CC(C)C)C(=O)O [2a] | 62 ± 4 |  | Ki (hD3R): 2.7 ± 0.1 nM |
| CC[C@H](C)[C@H](NC(=O)[C@H](Cc1ccc(O)cc1)NC(=O)[C@@H]1CCCN1C(=O)[C@H](CCCNC(=N)N)NC(=O)[C@H](CCCNC(=N)N)NC(=O)CCOCCOCCOCCOCCOCCOCCNC(=O)CCOCCOCCOCCOCCOCCOCCNC(=O)CCOCCOCCOCCOCCOCCOCCNC(=O)c1ccc(-c2ccc(-n3cc(CCCCN4CCN(c5ccccc5OC)CC4)nn3)cc2)cc1)C(=O)N[C@@H](CC(C)C)C(=O)O [2c] | 430 ± 220 | 61 ± 2 | concentration of maximum effect (bell-shaped curve), D2R_D80A/NTS1R (D2R_D80A/NTS1R): 300 nM; effect on forskolin-induced cAMP accumulation, cells expressing D2R only (in words) (D2SR): only weakly activates D2R |
| CC[C@H](C)[C@H](NC(=O)[C@H](Cc1ccc(O)cc1)NC(=O)[C@@H]1CCCN1C(=O)[C@H](CCCNC(=N)N)NC(=O)[C@H](CCCNC(=N)N)NC(=O)CCOCCOCCOCCOCCOCCOCCNC(=O)CCOCCOCCOCCOCCOCCOCCNC(=O)CCOCCOCCOCCOCCOCCOCCNC(=O)CCOCCOCCOCCOCCOCCOCCNC(=O)c1ccc(-c2ccc(-n3cc(CCCCN4CCN(c5ccccc5OC)CC4)nn3)cc2)cc1)C(=O)N[C@@H](CC(C)C)C(=O)O [2d] | 370 ± 50 | 62 ± 3 |  |
| CC[C@H](C)[C@H](NC(=O)CN(CCc1ccc(O)cc1)C(=O)[C@@H]1CCCN1C(=O)[C@H](CCCNC(=N)N)NC(=O)[C@H](CCCNC(=N)N)NC(=O)CCOCCOCCOCCOCCOCCOCCNC(=O)c1ccc(-c2ccc(-n3cc(CCCCN4CCN(c5ccccc5OC)CC4)nn3)cc2)cc1)C(=O)N[C@@H](CC(C)C)C(=O)O [2e] |  |  | Ki (hNTS2R): 20 nM; Ki (hD3R): 5.8 ± 1.3 nM |
| CC[C@H](C)[C@H](NC(=O)CN(CCc1ccc(O)cc1)C(=O)[C@@H]1CCCN1C(=O)[C@H](CCCNC(=N)N)NC(=O)[C@H](CCCNC(=N)N)NC(=O)CCOCCOCCOCCOCCOCCOCCNC(=O)CCOCCOCCOCCOCCOCCOCCNC(=O)c1ccc(-c2ccc(-n3cc(CCCCN4CCN(c5ccccc5OC)CC4)nn3)cc2)cc1)C(=O)N[C@@H](CC(C)C)C(=O)O [2f] | 260 ± 170 |  |  |
| CCCN(CCCCc1cn(-c2ccc(-c3ccc(C(=O)NCCOCCOCCOCCOCCOCCOCCC(=O)N[C@@H](CCCNC(=N)N)C(=O)N[C@@H](CCCNC(=N)N)C(=O)N4CCC[C@H]4C(=O)N[C@@H](Cc4ccc(O)cc4)C(=O)N[C@H](C(=O)N[C@@H](CC(C)C)C(=O)O)[C@@H](C)CC)cc3)cc2)nn1)C1Cc2ccccc2C1 [3a] | 25 ± 10 |  |  |
| CCCN(CCCCc1cn(-c2ccc(-c3ccc(C(=O)NCCOCCOCCOCCOCCOCCOCCC(=O)NCCOCCOCCOCCOCCOCCOCCC(=O)NCCOCCOCCOCCOCCOCCOCCC(=O)N[C@@H](CCCNC(=N)N)C(=O)N[C@@H](CCCNC(=N)N)C(=O)N4CCC[C@H]4C(=O)N[C@@H](Cc4ccc(O)cc4)C(=O)N[C@H](C(=O)N[C@@H](CC(C)C)C(=O)O)[C@@H](C)CC)cc3)cc2)nn1)C1Cc2ccccc2C1 [3c] | 80 ± 26 | 50 ± 4 | effect on forskolin-induced cAMP accumulation, cells expressing D2R only (in words) (D2SR): stimulates D2R similar to quinpirole |
| CCCN(CCCCc1cn(-c2ccc(-c3ccc(C(=O)NCCOCCOCCOCCOCCOCCOCCC(=O)NCCOCCOCCOCCOCCOCCOCCC(=O)NCCOCCOCCOCCOCCOCCOCCC(=O)NCCOCCOCCOCCOCCOCCOCCC(=O)N[C@@H](CCCNC(=N)N)C(=O)N[C@@H](CCCNC(=N)N)C(=O)N4CCC[C@H]4C(=O)N[C@@H](Cc4ccc(O)cc4)C(=O)N[C@H](C(=O)N[C@@H](CC(C)C)C(=O)O)[C@@H](C)CC)cc3)cc2)nn1)C1Cc2ccccc2C1 [3d] | 180 ± 40 | 53 ± 6 |  |
| CCc1cc(Cl)c(OC)c(C(=O)NC[C@@H]2CCCN2CC)c1O [eticlopride, reference compound] |  |  | IC50 (D2R): 3.1 nM; antagonist behaviour at D2R (in words) (D2R): inverse agonists; also recorded: inverse agonist effect; decrease of the basal response (inverse agonist effect on basal cAMP level) (D2R): 22% |
| {2‑methoxyphenylpiperazine D2R antagonist pharmacophore-biphenyltriazole-PEG spacer 44‑atom}-RRP[N(4-hydroxyphenethyl)Gly]IL (reading uncertain) [bivalent control compound 2f] |  |  | Ki ([1]; N-terminus carries a 44-atom polyethylene glycol-based spacer, a biphenyltriazole moiety and a 2-methoxyphenylpiperazine D2R antagonist pharmacophore): 200 nM |
| {aminoindane‑type D2R agonist pharmacophore-biphenyltriazole-PEG spacer 22‑atom}-RRP[N(4-hydroxyphenethyl)Gly]IL (reading uncertain) [bivalent control compound 3e] |  |  | Ki ([1]; N-terminus carries a 22-atom polyethylene glycol-based spacer, a biphenyltriazole moiety and an aminoindane-type D2R agonist pharmacophore): 59 nM |
